Molecular target: EGFR^L858R/T790M/C797S kinase (Homo sapiens (Human), UniProt P00533, C797S/L858R/T790M)
Experiment: EGFR^L858R/T790M/C797S kinase inhibitory activity experiment
Assay type: biochemical
Settings: in vitro
Method: EGFRL^858R/T790M/C797S kinase inhibitory activity experiment: The compounds of the present invention have excellent in-vitro inhibitory activity against EGFR^L858R/T790M/C797S kinase
• Centrifuge (manufacturer: Eppendorf, model: 5430) • Microplate reader (manufacturer: Perkin Elmer, model: Caliper EZ ReaderII) • Echo 550 (manufacturer: Labcyte, model: Echo 550) • Experimental Method • Compound preparation: • A 10 mM storage solution was prepared.
(1) 1×Kinase buffer was prepared.
(2) Preparation of concentration gradient of compound: The tested compound has a test concentration starting from 1 μM, diluted 10 times, with 10 concentrations, and subjected to single-well or multi-well detection. The compound was diluted to a 100% DMSO solution with a final concentration of 100 times in a 384 source plate. […] of the compound at a final concentration of 100 times was transferred to the target plate 384-well-plate using the pipette Echo 550.
(3) A kinase solution with a final concentration of 2.5 times was prepared using 1× Kinase buffer.
(4) 10 μL of the kinase solution with the final concentration of 2.5 times was added to a compound well and a positive control well, respectively; 10 μL of 1×Kinase buffer was added to a negative control well.
(5) Centrifugation was conducted at 1000 rpm for 30 seconds, and the reaction plate was shaken and mixed well, and incubated at a room temperature for 10 minutes.
(6) A mixed solution of ATP with a final concentration of 5/3 times and Kinase substrate 22 was prepared using 1×Kinase buffer.
(7) A mixed solution of 15 μL of ATP with a final concentration of 5/3 times and a substrate was added for initial reaction.
(8) The 384-well-plate was centrifuged at 1000 rpm for 30 seconds, shaken and mixed well, and incubated at a room temperature for 60 minutes.
(9) 30 μL of a termination detection solution was added to stop the kinase reaction. Centrifugation was conducted at 1000 rpm for 30 seconds. Shaking and mixing well were conducted.
(10) The conversion rate was read using Caliper EZ Reader.
where Conversion %_sample is the conversion rate reading of the sample; Conversion %_min: the average value of negative control wells, representing the conversion rate reading of wells without enzyme activity; Conversion %_max: the average value of positive control wells, representing the conversion rate reading of wells without compound inhibition; % Inhibition represents the inhibition rate.
Fitting of Dose-Response Curve
Using the log value of concentration as the X-axis and the percentage inhibition rate as the Y-axis, the dose-response curve was fitted using the log(inhibitor) vs. response —Variable slope of the analysis software GraphPad Prism 5 to obtain the IC50 value of each compound on enzyme activity.

EGFR^L858R/T790M/C797S kinase, sequence (P00533 25-1210 T790M/C797S/L858R): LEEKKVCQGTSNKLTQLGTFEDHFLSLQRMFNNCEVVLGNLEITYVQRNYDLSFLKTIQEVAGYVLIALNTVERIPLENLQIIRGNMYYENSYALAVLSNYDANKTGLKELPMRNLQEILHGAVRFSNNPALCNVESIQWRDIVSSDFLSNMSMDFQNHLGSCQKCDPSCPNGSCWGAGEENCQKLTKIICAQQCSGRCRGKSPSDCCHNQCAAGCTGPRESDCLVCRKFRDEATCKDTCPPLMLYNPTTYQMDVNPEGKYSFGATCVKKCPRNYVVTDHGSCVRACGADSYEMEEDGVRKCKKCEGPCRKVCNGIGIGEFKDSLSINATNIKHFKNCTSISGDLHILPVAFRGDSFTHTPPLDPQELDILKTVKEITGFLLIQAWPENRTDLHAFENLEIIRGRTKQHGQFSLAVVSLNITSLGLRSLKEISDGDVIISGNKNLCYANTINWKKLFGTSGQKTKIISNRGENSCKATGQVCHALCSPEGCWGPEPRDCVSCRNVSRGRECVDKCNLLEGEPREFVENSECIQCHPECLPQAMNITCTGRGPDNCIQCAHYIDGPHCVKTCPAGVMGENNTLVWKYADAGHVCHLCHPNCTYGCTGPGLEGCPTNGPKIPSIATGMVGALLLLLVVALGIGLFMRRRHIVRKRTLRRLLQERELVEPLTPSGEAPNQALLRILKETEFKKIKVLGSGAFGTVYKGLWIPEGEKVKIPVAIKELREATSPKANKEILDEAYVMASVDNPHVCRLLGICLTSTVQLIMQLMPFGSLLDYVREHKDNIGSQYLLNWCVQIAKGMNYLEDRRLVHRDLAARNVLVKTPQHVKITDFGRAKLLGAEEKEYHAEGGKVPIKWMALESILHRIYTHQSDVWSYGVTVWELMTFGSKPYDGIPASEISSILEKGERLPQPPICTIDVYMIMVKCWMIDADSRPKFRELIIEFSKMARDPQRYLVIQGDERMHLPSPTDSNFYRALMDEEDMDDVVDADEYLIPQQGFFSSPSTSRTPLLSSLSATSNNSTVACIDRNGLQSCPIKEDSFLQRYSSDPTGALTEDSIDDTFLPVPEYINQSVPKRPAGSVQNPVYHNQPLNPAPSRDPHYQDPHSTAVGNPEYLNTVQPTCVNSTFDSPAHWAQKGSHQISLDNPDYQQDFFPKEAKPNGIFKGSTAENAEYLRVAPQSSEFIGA

Row | SMILES | IC50
1 | COc1cc(N2CCC(N3CCN(C)CC3)CC2)c(C)cc1Nc1ncc(Cl)c(Nc2ccc(C)c(C)c2P(C)(C)=O)n1 [BD-2, (6-((5-Chloro-2-((2-methoxy-5-methyl-4-(4-(4-methylpiperazin-1-yl)piperidin-1-yl)phenyl)amino)pyrimidin-4-yl)amino)-2,3-dimethylphenyl)dimethylphosphine oxide] | 5 nM
2 | COc1cc(N2CCC3(CC2)CC(N(C)C)C3)ccc1Nc1ncc(Cl)c(Nc2cc(C)c(C)cc2P(C)(C)=O)n1 [Compound 1, (6-((5-Chloro-2-((4-(2-(dimethylamino)-7-azaspiro[3.5]nonan-7-yl)-2-methoxyphenyl)amino)pyrimidin-4-yl)amino)-3,4-dimethylphenyl)dimethylphosphine oxide] | 27 nM
3 | COc1cc(N2CC3(CCC(N(C)C)CC3)C2)ccc1Nc1ncc(Cl)c(Nc2ccc(C)c(C)c2P(C)(C)=O)n1 [Compound 2, (6-((5-Chloro-2-((4-(7-(dimethylamino)-2-azaspiro[3.5]nonane-2-yl)-2-methoxyphenyl)amino)pyrimidin-4-yl)amino)-2,3-dimethylphenyl)dimethylphosphine oxide] | 89 nM
4 | COc1cc(N2CC3(CCC(N(C)C)CC3)C2)c(C)cc1Nc1ncc(Cl)c(Nc2ccc(C)c(C)c2P(C)(C)=O)n1 [Compound 3, (6-((5-Chloro-2-((4-(7-(dimethylamino)-2-azaspiro[3.5]nonan-2-yl)-2-methoxy-5-methylphenyl)amino)pyrimidin-4-yl)amino)-2,3-dimethylphenyl)dimethylphosphine oxide] | 21 nM
5 | COc1cc(N2CCC3(CCN(C)CC3)CC2)ccc1Nc1ncc(Cl)c(Nc2ccc(C)c(C)c2P(C)(C)=O)n1 [Compound 4, (6-((5-Chloro-2-((2-methoxy-4-(9-methyl-3,9-diazaspiro[5.5]undecan-3-yl)phenyl)amino)pyrimidin-4-yl)amino)-2,3-dimethylphenyl)dimethylphosphine oxide] | 16 nM
6 | COc1cc(N2CCC3(CC2)CC(N(C)C)C3)c(C)cc1Nc1ncc(Cl)c(Nc2cc(C)c(C)cc2P(C)(C)=O)n1 [Compound 9, (2-((5-Chloro-2-((4-(2-(dimethylamino)-7-azaspiro[3.5]nonan-7-yl)-2-methoxy-5-methylphenyl)amino)pyrimidin-4-yl)amino)-4,5-dimethylphenyl)dimethylphosphine oxide] | 7 nM
7 | CCc1cc(Nc2ncc(Cl)c(Nc3cc(C)c(C)cc3P(C)(C)=O)n2)c(OC)cc1N1CC2(CCC(N(C)C)CC2)C1 [Compound 10, (2-((5-Chloro-2-((4-(7-(dimethylamino)-2-azaspiro[3.5]nonan-2-yl)-5-ethyl-2-methoxypheny 1)amino)pyrimidin-4-yl)amino)-4,5-dimethylphenyl)dimethylphosphine oxide] | 13 nM
8 | CCc1cc(Nc2ncc(Cl)c(Nc3cc(C)c(C)cc3P(C)(C)=O)n2)c(OC)cc1N1CCC(N2CCN(C)CC2)CC1 [Compound 11, (2-((5-chloro-2-((5-ethyl-2-methoxy-4-(4-(4-methylpiperazin-1-yl)piperidin-1-yl)phenyl)amino)pyrimidin-4-yl)amino)-4,5-dimethylphenyl)dimethylphosphine oxide] | 5 nM
9 | CCc1cc(Nc2ncc(Cl)c(Nc3cc(C)c(C)cc3P(C)(C)=O)n2)c(OC)cc1N1CCC(N2CCOCC2)CC1 [Compound 14, (2-((5-chloro-2-((5-ethyl-2-methoxy-4-(4-morpholinopiperidin-1-yl)phenyl)amino)pyrimidin-4-yl)amino)-4,5-dimethylphenyl)dimethylphosphine oxide] | 8.3 nM
10 | CCc1cc(Nc2ncc(Cl)c(Nc3cc(C)c(C)cc3P(C)(C)=O)n2)c(OC)cc1N1CCC(N2CC(N(C)C)C2)CC1 [Compound 15, (2-((5-chloro-2-((4-(4-(3-(dimethylamino)azetidin-1-yl)piperidine-1-yl)-5-ethyl-2-methoxyphenyl)amino)pyrimidin-4-yl)amino)-4,5-dimethylphenyl)dimethylphosphine oxide] | 3.8 nM
11 | CCc1cc(Nc2ncc(Cl)c(Nc3cc(C)cc(C)c3P(C)(C)=O)n2)c(OC)cc1N1CCC2(CC1)CC(N(C)C)C2 [Compound 18, (2-((5-Chloro-2-((4-(2-(dimethylamino)-7-azaspiro[3.5]non-7-yl)-5-ethyl-2-methoxyphenyl)amino)pyrimidin-4-yl)amino)-4,6-dimethylphenyl)dimethylphosphine oxide] | 36 nM
12 | CCc1cc(Nc2ncc(Cl)c(Nc3cc(C)c(C)cc3P(C)(C)=O)n2)c(OC)cc1N1CCC2(CC1)CN(C)C2 [Compound 20, (2-((5-Chloro-2-((5-ethyl-2-methoxy-4-(2-methyl-2,7-diazaspiro[3.5]non-7-yl)phenyl)amino)pyrimidin-4-yl)amino)-4,5-dimethylphenyl)dimethylphosphine oxide] | 29 nM
13 | COc1cc(N2CCC3(CC2)CC(N(C)C)C3)c(F)cc1Nc1ncc(Cl)c(Nc2ccc(C)c(C)c2P(C)(C)=O)n1 [Compound 22] | 10 nM
14 | CCc1cc(Nc2ncc(Cl)c(Nc3ccc(C)c(C)c3P(C)(C)=O)n2)c(OC)cc1N1CC2(CCN(CC3CC3)CC2)C1 [Compound 26] | 0.74 nM
15 | CCc1cc(Nc2ncc(Cl)c(Nc3ccc(C)c(C)c3P(C)(C)=O)n2)c(OC)cc1N1CC2(CCN(CC)CC2)C1 [Compound 27] | 0.81 nM
16 | CCc1cc(Nc2ncc(Cl)c(Nc3ccc(C)c(C)c3P(C)(C)=O)n2)c(OC)cc1N1CC2(CCN(CC(F)F)CC2)C1 [Compound 28] | 0.99 nM
17 | CCc1cc(Nc2ncc(Cl)c(Nc3ccc(C)c(C)c3P(C)(C)=O)n2)c(OC)cc1N1CC2(CCC(CC#N)CC2)C1 [Compound 29, 2-(2-(4-((5-chloro-4-((2-(dimethylphosphoryl)-3,4-dimethylphenyl)amino)pyrimidin-2-yl)amino)-2-ethyl-5-methoxyphenyl)-2-azaspiro[3.5]nonane-7-yl)acetonitrile] | 18.1 nM
18 | CCc1cc(Nc2ncc(Cl)c(Nc3ccc(C)c(C)c3P(C)(C)=O)n2)c(OC)cc1N1CCC2(CC1)CN(C(C)=O)C2 [Compound 30, 1-(7-(4-((5-chloro-4-((2-(dimethylphosphoryl)-3,4-dimethylphenyl)amino)pyrimidin-2-yl)amino)-2-ethyl-5-methoxyphenyl)-2,7-diazaspiro[3.5]nonan-2-yl)ethan-1-one] | 6.78 nM
19 | CCc1cc(Nc2ncc(Cl)c(Nc3ccc(C)c(C)c3P(C)(C)=O)n2)c(OC)cc1N1CCC2(CC1)CN(COC)C2 [Compound 31] | 4.19 nM
20 | CCN1CCC2(CC1)CN(c1cc(OC)c(Nc3ncc(Cl)c(Nc4ccc(C)c(C)c4P(C)(C)=O)n3)cc1C)C2 [Compound 33] | 0.73 nM
21 | COc1cc(N2CC3(CCN(C)CC3)C2)c(Cl)cc1Nc1ncc(Cl)c(Nc2ccc(C)c(C)c2P(C)(C)=O)n1 [Compound 34] | 0.84 nM
22 | CCN1CCC2(CC1)CN(c1cc(OC)c(Nc3ncc(Cl)c(Nc4ccc(C)c(C)c4P(C)(C)=O)n3)cc1Cl)C2 [Compound 35] | 0.68 nM
23 | CCc1cc(Nc2ncc(Cl)c(Nc3cc(Cl)c(Cl)cc3P(C)(C)=O)n2)c(OC)cc1N1CC2(CCN(C)CC2)C1 [Compound 36] | 0.96 nM
24 | CCc1cc(Nc2ncc(Cl)c(Nc3cc(Cl)c(Cl)cc3P(C)(C)=O)n2)c(OC)cc1N1CC2(CCN(C3CC3)CC2)C1 [Compound 37] | 0.49 nM
25 | CCc1cc(Nc2ncc(Cl)c(Nc3cc(Cl)c(Cl)cc3P(C)(C)=O)n2)c(OC)cc1N1CC2(CCN(CC(F)F)CC2)C1 [Compound 38] | 0.59 nM

— patent US20250101052A1, “COMPOUND FOR EGFR KINASE INHIBITOR, COMPOSITION, AND USE THEREOF” (INNOVATION INSTITUTE FOR ARTIFICIAL INTELLIGENCE IN …, priority 2021, published 2025)
